Where two headings read alike, the source gives them in different places.
Legend:
[1] = system: D. melanogaster trans-heterozygous mwh+/+flr3 larvae of the HB cross; assay: SMART wing spot test, mutagenicity, HB cross; type: in vivo, Drosophila melanogaster
Description: The somatic mutation and recombination test, or the wing spot test, using D. melanogaster was employed as an in vivo system to assess the mutagenicity and anti-mutagenicity of chrysin-ES. Two different crosses were conducted: (i) a standard cross (ST) and (ii) a high bioactivation cross (HB) [18]. The standard cross larvae were obtained from virgin female of flr3/TM3, Ser crossed with males of mwh/mwh, while the HB cross larvae expressing cytochrome P450 enzymes involved in xenobiotic biotransformation were obtained from virgin females of ORR/ORR; flr^3/In (3LR) TM3, ri p^psep l (3)89Aa bx^34e e Bd^s crossed with males of mwh/mwh. The flies were cultured at a constant temperature of 25 ± 1 °C and 60–70% RH at photoperiod 12:12 (light/dark). To evaluate the mutagenicity of chrysin and chrysin-ES, a hundred larva F1 progenies derived from the above crossing were fed with instant Drosophila medium (Formula 4-24®), Carolina, Burlington, NC, USA) containing chrysin or chrysin-ES (20–120 µg/mL). DI was used as a negative control, while 20 mM urethane (URE) was used as a positive control. The larvae were reared on each medium until pupation at 25 °C. After that, forty wings of surviving flies in each group were collected for mutant analysis. The mutant spots on the wings, including small single spots, large single spots, and twin spots, were counted.

[2] = system: S. typhimurium TA98; assay: Ames test, anti-mutagenicity
Description: (§1) Furthermore, the anti-mutagenicity of the samples was performed by a similar procedure, as mentioned above. […] The percentage inhibition (decrease revertant colony number) was calculated as in the following equation:Anti-mutagenicity (%) = [1 − (b/a)] × 100 • a = revertant colony number induced via standard mutagen (positive control). • b = revertant colony number induced by standard mutagen in the presence of each sample treatment.
(§2) The percent of inhibition between 0–20%, 21–40%, 41–60%, and higher than 60% indicate negligible, weak, moderate, and strong anti-mutagenicity, respectively.

[3] = system: S. typhimurium TA100; assay: Ames test, anti-mutagenicity
Description: as §1, §2

[4] = cited from earlier work
[5] = system: RAW 264.7; assay: MTT cytotoxicity assay; type: cell-based, murine; conditions: Mus musculus, RAW264.7, 48 h
Description: RAW 264.7 (murine macrophage-like cell), 3T3-L1 adipocyte (murine adipocyte), HEK293 (human embryonic kidney cell), and LX-2 (human hepatic stellate cell) were obtained from American Type Culture Collection (ATCC, Manassas, VA, USA). RAW 264.7 macrophages were cultured as a suspension culture in an ultra-low attachment culture dish, whereas the others were cultured as adherent cells in a cell culture flask. The cells were grown in Dulbecco’s Modified Eagle Medium (DMEM) with L-glutamine, supplemented with 10% fetal bovine serum (FBS) (RAW 264.7, HEK293, and LX-2) or 10% fetal calf serum (FCS) (3T3-L1) and 1% penicillin under 5% CO2, at 37 °C. […] Blank-ES was used as a vehicle control. The amount of blank-ES was equal to chrysin-ES amount that was used for the treatment. The cytotoxicity of chrysin, chrysin-ES, and blank-ES in each cell was determined using an MTT assay. […] Then, the solution was gently removed, and the formazan crystal was dissolved with dimethyl sulfoxide (DMSO). The soluble formazan was measured using a microplate reader (Bio-TEK Synergy Hybrid Reader H4) at 540 nm. The cell viability is directly related to the absorbance of formazan. The percentage of cell viability was calculated using the following equation. Cell viability (%) = (Absorbance (sample))/(Absorbance (control)) × 100

[6] = AF-2 0.1 µg/plate, −S9, 5.7 µM/plate
[7] = AF-2 0.1 µg/plate, −S9, 11.4 µM/plate
[8] = AF-2 0.1 µg/plate, −S9, 22.8 µM/plate
[9] = PhIP 0.1 µg/plate, +S9, 0.35 µM/plate
[10] = PhIP 0.1 µg/plate, +S9, 0.70 µM/plate
[11] = PhIP 0.1 µg/plate, +S9, 1.40 µM/plate
[12] = PhIP 0.1 µg/plate, +S9, 2.85 µM/plate
[13] = PhIP 0.1 µg/plate, +S9, 5.70 µM/plate
[14] = Salmonella enterica, TYPHIMURIUM, read-out: % mutagenic inhibition, AF-2 0.1 µg/plate, −S9, 5.7 µM/plate
[15] = Salmonella enterica, TYPHIMURIUM, read-out: % mutagenic inhibition, AF-2 0.1 µg/plate, −S9, 11.4 µM/plate
[16] = Salmonella enterica, TYPHIMURIUM, read-out: % mutagenic inhibition, AF-2 0.1 µg/plate, −S9, 22.8 µM/plate
[17] = IQ 0.05 µg/plate, +S9, 0.35 µM/plate
[18] = IQ 0.05 µg/plate, +S9, 0.70 µM/plate
[19] = IQ 0.05 µg/plate, +S9, 1.40 µM/plate
[20] = IQ 0.05 µg/plate, +S9, 2.85 µM/plate
[21] = IQ 0.05 µg/plate, +S9, 5.70 µM/plate

**Q.** With O=c1cc(-c2ccccc2)oc2cc(O)cc(O)c12 [Chrysin, 5,7-dihydroxyflavone] as the molecule, how does the “Mutant spots per individual (number of spots), Large Single” value ([1]; 20 µg/mL) read?
**A.** The value was 0.03 (1).

**Q.** What about the “Mutant spots per individual (number of spots), Total Spots” value ([1]; 20 µg/mL) of the same molecule?
**A.** Its value is 0.23 (9).

**Q.** What about the “Mutant spots per individual (number of spots), Twin” value (“Mutant spots per individual … Twin” below) ([1]; 20 µg/mL) of the same molecule?
**A.** The value was 0.03 (1).

**Q.** What about the “Mutant spots per individual (number of spots), Large Single” value ([1]; 40 µg/mL) of the same molecule?
**A.** Its value is 0.03 (1).

**Q.** What about the “Mutant spots per individual (number of spots), Total Spots” value ([1]; 40 µg/mL) of the same molecule?
**A.** Its value is 0.15 (6).

**Q.** What about the “Mutant spots per individual … Twin” value ([1]; 40 µg/mL) of the same molecule?
**A.** The value was 0 (0).

**Q.** What about the “Mutant spots per individual (number of spots), Large Single” value ([1]; 80 µg/mL) of the same molecule?
**A.** The value was 0.03 (1).

**Q.** What about the “Mutant spots per individual (number of spots), Total Spots” value ([1]; 80 µg/mL) of the same molecule?
**A.** The value was 0.15 (6).

**Q.** And the “Mutant spots per individual … Twin” value ([1]; 80 µg/mL)?
**A.** Its value is 0 (0).

**Q.** And the “Mutant spots per individual (number of spots), Large Single” value ([1]; 120 µg/mL)?
**A.** The value was 0 (0).

**Q.** What about the “Mutant spots per individual (number of spots), Small Single” value ([1]; 120 µg/mL) of the same molecule?
**A.** The value was 0.08 (3).

**Q.** What about the “Mutant spots per individual (number of spots), Total Spots” value ([1]; 120 µg/mL) of the same molecule?
**A.** Its value is 0.08 (3).

**Q.** And the “Mutant spots per individual … Twin” value ([1]; 120 µg/mL)?
**A.** The value was 0 (0).

**Q.** What about the “Statistical diagnosis, Small Single” value ([1]; 120 µg/mL, vs DI) of the same molecule?
**A.** The value was “−”.

**Q.** And the “Statistical diagnosis, Total Spots” value ([1]; 120 µg/mL, vs DI)?
**A.** Its value is “−”.

**Q.** And the “Inhibitory Classification” value [2, 6]?
**A.** Its value is “Mild”.

**Q.** And the “Number of Revertant Colonies” value [2, 6]?
**A.** The value was 166 ± 23.

**Q.** What about the “Inhibitory Classification” value [2, 7] of the same molecule?
**A.** Its value is “Moderate”.

**Q.** And the “Number of Revertant Colonies” value [2, 7]?
**A.** The value was 140 ± 39.

**Q.** What about the “Inhibitory Classification” value [2, 8] of the same molecule?
**A.** Its value is “Mild”.

**Q.** What about the “Number of Revertant Colonies” value [2, 8] of the same molecule?
**A.** Its value is 164 ± 56.

**Q.** And the “Inhibitory Classification” value [2, 9]?
**A.** The value was “Moderate”.

**Q.** What about the “Number of Revertant Colonies” value [2, 9] of the same molecule?
**A.** The value was 214 ± 9.

**Q.** What about the “Inhibitory Classification” value [2, 10] of the same molecule?
**A.** Its value is “Strong”.

**Q.** What about the “Number of Revertant Colonies” value [2, 10] of the same molecule?
**A.** The value was 153 ± 10.

**Q.** And the “Inhibitory Classification” value [2, 11]?
**A.** The value was “Strong”.

**Q.** And the “Number of Revertant Colonies” value [2, 11]?
**A.** Its value is 77 ± 12.

**Q.** What about the “Inhibitory Classification” value [2, 12] of the same molecule?
**A.** The value was “Strong”.

**Q.** What about the “Number of Revertant Colonies” value [2, 12] of the same molecule?
**A.** Its value is 71 ± 9.

**Q.** What about the “Inhibitory Classification” value [2, 13] of the same molecule?
**A.** Its value is “Strong”.

**Q.** What about the “Number of Revertant Colonies” value [2, 13] of the same molecule?
**A.** The value was 45 ± 18.

**Q.** And the inhibition at […] [2, 14]?
**A.** The inhibition at […] was 34%.

**Q.** What about the inhibition at 11.4 µM [2, 15] of the same molecule?
**A.** Its inhibition at 11.4 µM is 45%.

**Q.** What about the inhibition at 22.8 µM [2, 16] of the same molecule?
**A.** Its inhibition at 22.8 µM is 35%.

**Q.** And the inhibition at 0.35 µM ([2]; Salmonella enterica, TYPHIMURIUM, read-out: % mutagenic inhibition, PhIP 0.1 µg/plate, +S9, 0.35 µM/plate)?
**A.** Its inhibition at 0.35 µM is 46%.

**Q.** And the inhibition at 0.7 µM ([2]; Salmonella enterica, TYPHIMURIUM, read-out: % mutagenic inhibition, PhIP 0.1 µg/plate, +S9, 0.70 µM/plate)?
**A.** The inhibition at 0.7 µM was 62%.

**Q.** What about the inhibition at 1.4 µM ([2]; Salmonella enterica, TYPHIMURIUM, read-out: % mutagenic inhibition, PhIP 0.1 µg/plate, +S9, 1.40 µM/plate) of the same molecule?
**A.** The inhibition at 1.4 µM was 81%.

**Q.** And the inhibition at 2.85 µM ([2]; Salmonella enterica, TYPHIMURIUM, read-out: % mutagenic inhibition, PhIP 0.1 µg/plate, +S9, 2.85 µM/plate)?
**A.** The inhibition at 2.85 µM was 82%.

**Q.** And the inhibition at […] ([2]; Salmonella enterica, TYPHIMURIUM, read-out: % mutagenic inhibition, PhIP 0.1 µg/plate, +S9, 5.70 µM/plate)?
**A.** The inhibition at […] was 89%.

**Q.** And the “Inhibitory Classification” value [3, 6]?
**A.** Its value is “Mild”.

**Q.** And the “Number of Revertant Colonies” value [3, 6]?
**A.** The value was 252 ± 14.

**Q.** And the “Inhibitory Classification” value [3, 7]?
**A.** Its value is “Mild”.

**Q.** And the “Number of Revertant Colonies” value [3, 7]?
**A.** Its value is 250 ± 6.

**Q.** What about the “Inhibitory Classification” value [3, 8] of the same molecule?
**A.** The value was “Mild”.

**Q.** What about the “Number of Revertant Colonies” value [3, 8] of the same molecule?
**A.** The value was 235 ± 20.

**Q.** What about the “Inhibitory Classification” value [3, 17] of the same molecule?
**A.** The value was “Moderate”.

**Q.** And the “Number of Revertant Colonies” value [3, 17]?
**A.** Its value is 328 ± 32.

**Q.** What about the “Inhibitory Classification” value [3, 18] of the same molecule?
**A.** Its value is “Strong”.

**Q.** And the “Number of Revertant Colonies” value [3, 18]?
**A.** Its value is 243 ± 16.

**Q.** And the “Inhibitory Classification” value [3, 19]?
**A.** The value was “Strong”.

**Q.** And the “Number of Revertant Colonies” value [3, 19]?
**A.** The value was 161 ± 10.

**Q.** What about the “Inhibitory Classification” value [3, 20] of the same molecule?
**A.** The value was “Strong”.

**Q.** What about the “Number of Revertant Colonies” value [3, 20] of the same molecule?
**A.** Its value is 106 ± 15.

**Q.** And the “Inhibitory Classification” value [3, 21]?
**A.** Its value is “Strong”.

**Q.** And the “Number of Revertant Colonies” value [3, 21]?
**A.** The value was 47 ± 10.

**Q.** What about the inhibition at […] [3, 14] of the same molecule?
**A.** Its inhibition at […] is 32%.

**Q.** What about the inhibition at 11.4 µM [3, 15] of the same molecule?
**A.** The inhibition at 11.4 µM was 32%.

**Q.** And the inhibition at 22.8 µM [3, 16]?
**A.** The inhibition at 22.8 µM was 37%.

**Q.** What about the inhibition at 0.35 µM ([3]; Salmonella enterica, TYPHIMURIUM, read-out: % mutagenic inhibition, IQ 0.05 µg/plate, +S9, 0.35 µM/plate) of the same molecule?
**A.** Its inhibition at 0.35 µM is 56%.

**Q.** What about the inhibition at 0.7 µM ([3]; Salmonella enterica, TYPHIMURIUM, read-out: % mutagenic inhibition, IQ 0.05 µg/plate, +S9, 0.70 µM/plate) of the same molecule?
**A.** Its inhibition at 0.7 µM is 67%.

**Q.** What about the inhibition at 1.4 µM ([3]; Salmonella enterica, TYPHIMURIUM, read-out: % mutagenic inhibition, IQ 0.05 µg/plate, +S9, 1.40 µM/plate) of the same molecule?
**A.** The inhibition at 1.4 µM was 78%.

**Q.** And the inhibition at 2.85 µM ([3]; Salmonella enterica, TYPHIMURIUM, read-out: % mutagenic inhibition, IQ 0.05 µg/plate, +S9, 2.85 µM/plate)?
**A.** Its inhibition at 2.85 µM is 86%.

**Q.** What about the inhibition at […] ([3]; Salmonella enterica, TYPHIMURIUM, read-out: % mutagenic inhibition, IQ 0.05 µg/plate, +S9, 5.70 µM/plate) of the same molecule?
**A.** The inhibition at […] was 94%.

**Q.** What about the “chrysin uptake eliminated in the feces” value [4] of the same molecule?
**A.** The value was 98%.

**Q.** And the IC20 ([5]; decreases cell viability by 20%)?
**A.** Its IC20 is roughly 43 µM.

**Q.** And the IC50 ([5]; decreases cell viability by 50%)?
**A.** The IC50 was roughly 69 µM.
